Data from ChEMBL document CHEMBL1132897, “The basal SAR of a novel insulin receptor activator” (Bioorg Med Chem Lett, 2000).

Experiments:
[1] = molecular target: Insulin receptor (Homo sapiens) (UniProt P06213); assay: Percent activation of insulin receptor in CHO cells by 10 uM of compound; type: cell-based
[2] = molecular target: Insulin receptor (Homo sapiens) (UniProt P06213); assay: Ability to activate the insulin receptor compared to that of lead structure 1 expressed as X/1

Chain of Insulin receptor (Homo sapiens) (P06213 28-758 limits assumed): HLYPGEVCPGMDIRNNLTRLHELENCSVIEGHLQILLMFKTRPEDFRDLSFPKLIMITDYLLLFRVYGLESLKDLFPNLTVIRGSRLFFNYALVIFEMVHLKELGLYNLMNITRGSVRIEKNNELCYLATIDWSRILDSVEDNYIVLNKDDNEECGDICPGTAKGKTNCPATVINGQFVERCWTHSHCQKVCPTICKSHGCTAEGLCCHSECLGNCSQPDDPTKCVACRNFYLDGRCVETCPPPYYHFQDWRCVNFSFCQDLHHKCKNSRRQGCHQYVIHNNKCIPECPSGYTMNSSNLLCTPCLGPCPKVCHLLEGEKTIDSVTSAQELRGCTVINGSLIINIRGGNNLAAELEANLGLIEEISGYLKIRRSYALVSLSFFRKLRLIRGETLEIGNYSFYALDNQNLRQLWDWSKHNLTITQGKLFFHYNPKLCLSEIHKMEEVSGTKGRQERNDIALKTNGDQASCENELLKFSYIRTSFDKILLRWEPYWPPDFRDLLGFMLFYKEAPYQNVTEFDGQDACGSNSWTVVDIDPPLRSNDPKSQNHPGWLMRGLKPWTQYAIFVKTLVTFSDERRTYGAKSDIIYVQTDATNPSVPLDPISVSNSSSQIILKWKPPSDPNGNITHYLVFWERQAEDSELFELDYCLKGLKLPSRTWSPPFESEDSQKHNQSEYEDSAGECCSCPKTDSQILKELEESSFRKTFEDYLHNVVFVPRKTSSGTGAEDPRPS
Chain of Insulin receptor (Homo sapiens) (P06213 763-1382 limits assumed): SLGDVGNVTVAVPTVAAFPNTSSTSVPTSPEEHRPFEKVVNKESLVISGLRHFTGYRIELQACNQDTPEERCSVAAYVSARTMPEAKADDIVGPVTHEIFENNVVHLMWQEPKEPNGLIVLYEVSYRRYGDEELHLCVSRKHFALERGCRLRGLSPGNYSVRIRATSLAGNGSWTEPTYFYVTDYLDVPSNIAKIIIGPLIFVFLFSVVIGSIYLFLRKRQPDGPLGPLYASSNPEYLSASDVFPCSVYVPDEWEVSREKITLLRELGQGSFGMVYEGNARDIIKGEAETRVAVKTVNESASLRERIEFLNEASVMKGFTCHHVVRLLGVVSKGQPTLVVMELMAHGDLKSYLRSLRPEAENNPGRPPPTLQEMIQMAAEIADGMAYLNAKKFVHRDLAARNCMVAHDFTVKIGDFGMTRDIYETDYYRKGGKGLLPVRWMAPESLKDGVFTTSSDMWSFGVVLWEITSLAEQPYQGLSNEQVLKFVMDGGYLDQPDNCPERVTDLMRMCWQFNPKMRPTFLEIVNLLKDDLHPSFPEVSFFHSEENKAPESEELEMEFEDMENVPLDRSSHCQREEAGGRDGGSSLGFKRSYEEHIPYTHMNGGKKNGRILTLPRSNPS

Row | Activation [1] [%] | Relative activity [2] | Structure (SMILES)
1 | 2 | 0.03 | C=CC(C)(C)c1[nH]c2ccccc2c1C1=C(O)C(N)=C(c2c[nH]c3c(CC=C(C)C)cccc23)C(=O)C1=O
2 | 82 | 1.09 | CCC(C)(C)c1[nH]c2ccccc2c1C1=C(O)C(O)=C(c2c[nH]c3c(CC=C(C)C)cccc23)C(=O)C1=O
3 | 16 | 0.21 | C=CC(C)(C)c1[nH]c2ccccc2c1C1=C(OC)C(=O)C(c2c[nH]c3c(CC=C(C)C)cccc23)=C(O)C1=O
4 | 75 | 1 | C=CC(C)(C)c1[nH]c2ccccc2c1C1=C(O)C(O)=C(c2c[nH]c3c(CC=C(C)C)cccc23)C(=O)C1=O
5 | 24 | 0.32 | C=CC(C)(C)c1[nH]c2ccccc2c1C1=C(O)C(O)=C(c2cn(C)c3c(CC=C(C)C)cccc23)C(=O)C1=O

Continued, compound first:

Row | Structure (SMILES) | Activation [1] [%] | Relative activity [2]
6 | CCC(C)(C)c1[nH]c2ccccc2c1C1=C(O)C(O)=C(c2c[nH]c3c(CCC(C)C)cccc23)C(=O)C1=O | 57 | 0.76
7 | C=CC(C)(C)c1[nH]c2ccccc2c1C1=C(O)C(O)=C(c2c[nH]c3c(CCC(C)(C)OC(=O)C(F)(F)F)cccc23)C(=O)C1=O | 48 | 0.64
8 | C=CC(C)(C)c1[nH]c2ccccc2c1C1=C(O)C(O)=C(c2c[nH]c3c(CC(O)C(C)(C)O)cccc23)C(=O)C1=O (stereo not given) | 75 | 1
9 | C=CC(C)(C)c1[nH]c2ccccc2c1C1=C(OS(=O)(=O)C(F)(F)F)C(=O)C(c2c[nH]c3c(CC=C(C)C)cccc23)=C(N)C1=O | 0 | 0
10 | C=CC(C)(C)c1[nH]c2ccccc2c1C1=C(OS(=O)(=O)C(F)(F)F)C(=O)C(c2c[nH]c3c(CC=C(C)C)cccc23)=C(OS(=O)(=O)C(F)(F)F)C1=O | 0 | 0
11 | C=CC(C)(C)c1[nH]c2ccccc2c1C1=C(O)C(=N\C)/C(c2c[nH]c3c(CC=C(C)C)cccc23)=C(O)C/1=N/C | 1 | 0.01
12 | C=CC(C)(C)c1[nH]c2ccccc2c1C1=C(O)C(O)=C(c2c[nH]c3c(CCC(C)(C)O)cccc23)C(=O)C1=O | 35 | 0.47
13 | C=CC(C)(C)c1[nH]c2ccccc2c1C1=C(OC)C(=O)C(c2c[nH]c3c(CC=C(C)C)cccc23)=C(OC)C1=O | 0 | 0
14 | C=CC(C)(C)c1c(C2=C(O)C(O)=C(c3cn(C)c4c(CC=C(C)C)cccc34)C(=O)C2=O)c2ccccc2n1C | 3 | 0.03
15 | C=CC(C)(C)c1c(C2=C(O)C(O)=C(c3c[nH]c4c(CCC(C)(C)O)cccc34)C(=O)C2=O)c2ccccc2n1C | 79 | 1.05
